Holding throughout (type): in vivo
Data set [1] concerns Oryza sativa. Briefly: Example C: selectivity test in major crops, post-emergence application. The settings on record: crop (Riz), 24 days, score 0-5, 0 or 1 = selective. The source says: (§1) Dans des pots de 7 x 7 x 8 cm remplis de terre agricole légère, on sème un nombre de graines déterminé en fonction de l'espèce végétale et de la grosseur de la graine.
(§2) On recouvre ensuite les graines d'une couche de terre d'environ 3 mm d'épaisseur et on laisse germer la graine jusqu'à ce qu'elle donne naissance à une plantule au stade convenable. Le stade de traitement pour les graminées est le stade "deuxième feuille en formation". Le stade de traitement pour les dicotylédones, est le stade "cotylédons étalés, première feuille vraie en développement".
(§3) Les pots sont alors traités par pulvérisation de bouillie en quantité correspondant à une dose volumique d'application de 500 l/ha et contenant la matière active à la concentration désirée.
(§4) La bouillie a été préparée de la même manière qu'à l'exemple A.
(§5) Les pots traités sont ensuite placés dans des bacs destinés à recevoir l'eau d'arrosage, en subirrigation, et maintenus pendant 24 jours à température ambiante sous 70 % d'humidité relative.
(§6) Au bout de 24 jours, on mesure un pourcentage (D) de destruction du nombre de pieds dans le pot traité par rapport au nombre de plantes dans les pots non traités (témoin). On mesure, sur les plantes traitées restantes, le pourcentage de réduction de taille (RT) par rapport aux plantes témoin.
(§7) Le pourcentage de volume foliaire non détruit par le produit est donc donné par la formule : [formula]
(§8) Cette valeur A est transformée en notation de 0 à 5 selon l'échelle suivante :
(§9) Ainsi, un produit est jugé comme sélectif vis à vis de la culture lorsque la valeur A notée est de 0 ou 1.
(§10) Les résultats obtenus sont présentés dans l'exemple C pour des doses d'application comprises entre 0,5 et 4 kg de matière active par hectare selon les produits.

Data set [2] relates to Xanthium pennsylvanicum. Described as above.
Excerpt: as §1, §2, §3, §4, §5, §6, §7, §8, §9, §10

The subject of data set [3] is Sinapis alba. The description is as above.
Excerpt: as §1, §2, §3, §4, §5, §6, §7, §8, §9, §10

In data set [4] the test system is Ipomea pupurea. Described as above.
Excerpt: as §1, §2, §3, §4, §5, §6, §7, §8, §9, §10

The test system of data set [5] is Sesbania exaltata. Described as above.
Excerpt: as §1, §2, §3, §4, §5, §6, §7, §8, §9, §10

Data set [6] relates to Triticum aestivum. Described as above. Particulars: crop (Blé), 24 days, score 0-5, 0 or 1 = selective.
Excerpt: as §1, §2, §3, §4, §5, §6, §7, §8, §9, §10

The test system of data set [7] is Zea mays. Described as above. The settings on record: crop (Maïs), 24 days, score 0-5, 0 or 1 = selective.
Excerpt: as §1, §2, §3, §4, §5, §6, §7, §8, §9, §10

The test system of data set [8] is Solanum nigrum. Described as above.
Excerpt: as §1, §2, §3, §4, §5, §6, §7, §8, §9, §10

Data set [9] concerns Ipomea purpurea. Briefly: Example B: post-emergence herbicidal application, pot test.
Excerpt: as §1
(§11) On recouvre ensuite les graines d'une couche de terre d'environ 3 mm d'épaisseur et on laisse germer la graine jusqu'à ce qu'elle donne naissance à une plantule au stade convenable. Le stade de traitement pour les graminées est le stade "deuxième feuille en formation ". Le stade de traitement pour les dicotylédones, est le stade "cotylédons étalés, première feuille vraie en développement".
as §3
(§12) La bouille a été préparée de la même manière qu'à l'exemple A.
as §5, §6
(§13) Le pourcentage du volume foliaire non détruit par le produit est donc donné par la formule : [formula]
as §8
(§14) Les résultats obtenus sont présentés après le tableau A pour des doses d'application de 4000 g/ha.

In data set [10] the test system is Sinapis alba. The data set is described as above.
Excerpt: as §1, §11, §3, §12, §5, §6, §13, §8, §14

Data set [11] has as its system Lolium multiflorum. Described as above.
Excerpt: as §1, §11, §3, §12, §5, §6, §13, §8, §14

Data set [12] deals with Digitaria sanguinalis. Described as above.
Excerpt: as §1, §11, §3, §12, §5, §6, §13, §8, §14

Data set [13] concerns Echinochloa crusgalli. The data set is described as above. The settings on record: 4000 g/ha, 576 h.
Excerpt: as §1, §11, §3, §12, §5, §6, §13, §8, §14

Data set [14] relates to Solanum nigrum. The description is as above.
Excerpt: as §1, §11, §3, §12, §5, §6, §13, §8, §14

[15] abbreviates: weed, dose 2 kg/ha, 24 days, score 0-5.
Setting [16] is: 4 kg/ha, rated after 24 days, score 0-5 from % leaf volume not destroyed.

Molecules are shown by their SMILES.
Wherever ACTIVITE HERBICIDE DE POST LEVEE O R Y is given: ranges in brackets are in %.
Wherever ACTIVITE HERBICIDE DE POST LEVEE T R Z is given: ranges in brackets are in %.
Wherever ACTIVITE HERBICIDE DE POST LEVEE Z E A is given: ranges in brackets are in %.

As to `CN(C)S(=O)(=O)n1nc(-c2ccccc2)nc1-c1ncccc1C(=O)O` [compound 1, Sel d'isopropylamine de 3 -(3 - carboxy 2 - pyridyl) 2 - N,N dimethyl sulfamoyl 5 - phényl 1,2,4 - triazole], the “ACTIVITE HERBICIDE DE POST LEVEE O R Y” value in data set [1] (dose 1 kg/ha) is given as 0 (90 à 100). In data set [2] (1000 g/ha, 576 h), the “ACTIVITE HERBICIDE DE POST LEVEE X A N” value is given as 4 (10 à 30). Moreover, the “ACTIVITE HERBICIDE DE POST LEVEE S I N” value in data set [3] (1000 g/ha, 576 h) is 5 (O à 10). Besides, the “ACTIVITE HERBICIDE DE POST LEVEE I P O” value in data set [4] (1000 g/ha, 576 h) is listed as 4 (10 à 30). Further, the “ACTIVITE HERBICIDE DE POST LEVEE S E S” value in [5] (1000 g/ha, 576 h) is reported as 5 (O à 10). In data set [6] (dose 1 kg/ha), the “ACTIVITE HERBICIDE DE POST LEVEE T R Z” value was 0 (90 à 100). The “ACTIVITE HERBICIDE DE POST LEVEE Z E A” value in [7] (dose 1 kg/ha) was 0 (90 à 100). Moreover, the “ACTIVITE HERBICIDE DE POST LEVEE S O L” value in data set [8] (1000 g/ha, 576 h) was 5 (O à 10). Also, in [9] (4000 g/ha, 576 h), the “ACTIVITE DE POST-LEVEE IPO” value is 3 (30 à 50). The “ACTIVITE DE POST-LEVEE SIN” value in [10] (4000 g/ha, 576 h) is reported as 5 (O à 10). Also, the “ACTIVITE DE POST-LEVEE LOL” value in data set [11] (4000 g/ha, 576 h) is recorded as 0 (90 à 100). Besides, the “ACTIVITE DE POST-LEVEE DIG” value in data set [12] (4000 g/ha, 576 h) is 0 (90 à 100). Moreover, in data set [13], the “ACTIVITE DE POST-LEVEE ECH” value is listed as 0 (90 à 100). The “ACTIVITE DE POST-LEVEE SOL” value in data set [14] (4000 g/ha, 576 h) is given as 5 (O à 10).

Take `CN(C)S(=O)(=O)n1nc(-c2ccccc2)nc1-c1ncccc1C(=O)O` [compound 7, Acide 3 - (3 - carboxy 2 - pyridyl) 2 - N,N - diméthyl sulfamoyl 5 - phényl 1,2,4 -triazole]: the “ACTIVITE HERBICIDE DE POST LEVEE O R Y” value in data set [1] (dose 2 kg/ha) is listed as 0 (90 à 100). Besides, in data set [2] (setting [15]), the “ACTIVITE HERBICIDE DE POST LEVEE X A N” value was 4 (10 à 30). In data set [3] (setting [15]), the “ACTIVITE HERBICIDE DE POST LEVEE S I N” value was 5 (O à 10). The “ACTIVITE HERBICIDE DE POST LEVEE I P O” value in data set [4] (weed, post-emergence, dose 2 kg/ha, 24 days, score 0-5) was 4 (10 à 30). In addition, in data set [5] (setting [15]), the “ACTIVITE HERBICIDE DE POST LEVEE S E S” value is reported as 5 (O à 10). In addition, the “ACTIVITE HERBICIDE DE POST LEVEE T R Z” value in data set [6] (dose 2 kg/ha) is on record as 0 (90 à 100). Further, the “ACTIVITE HERBICIDE DE POST LEVEE Z E A” value in [7] (dose 2 kg/ha) was 0 (90 à 100). In addition, in data set [8] (setting [15]), the “ACTIVITE HERBICIDE DE POST LEVEE S O L” value is given as 4 (10 à 30). The “ACTIVITE DE POST-LEVEE IPO” value in data set [9] (setting [16]) is on record as 4 (10 à 30). For the same molecule, the “ACTIVITE DE POST-LEVEE SIN” value in data set [10] (setting [16]) is reported as 5 (O à 10). Besides, the “ACTIVITE DE POST-LEVEE LOL” value in data set [11] (setting [16]) is 1 (70 à 90). The “ACTIVITE DE POST-LEVEE DIG” value in data set [12] (setting [16]) was 1 (70 à 90). Further, the “ACTIVITE DE POST-LEVEE SOL” value in [14] (setting [16]) is on record as 5 (O à 10).

Consider `CN(C)S(=O)(=O)n1nc(-c2cccc(Cl)c2)nc1-c1ncccc1C(=O)O` [compound 9], for which the “ACTIVITE HERBICIDE DE POST LEVEE O R Y” value in data set [1] (dose 0,5 kg/ha) is listed as 1 (70 à 90). In [2] (500 g/ha, 576 h), the “ACTIVITE HERBICIDE DE POST LEVEE X A N” value is on record as 3 (30 à 50). Also, the “ACTIVITE HERBICIDE DE POST LEVEE S I N” value in data set [3] (500 g/ha, 576 h) was 3 (30 à 50). In addition, the “ACTIVITE HERBICIDE DE POST LEVEE I P O” value in [4] (500 g/ha, 576 h) was 3 (30 à 50). For the same molecule, the “ACTIVITE HERBICIDE DE POST LEVEE S E S” value in data set [5] (500 g/ha, 576 h) was 5 (O à 10). In addition, the “ACTIVITE HERBICIDE DE POST LEVEE T R Z” value in [6] (dose 0,5 kg/ha) is given as 0 (90 à 100). The “ACTIVITE HERBICIDE DE POST LEVEE Z E A” value in data set [7] (dose 0,5 kg/ha) is 2 (50 à 70). Besides, the “ACTIVITE HERBICIDE DE POST LEVEE S O L” value in data set [8] (500 g/ha, 576 h) is 4 (10 à 30). Moreover, the “ACTIVITE DE POST-LEVEE IPO” value in [9] (4000 g/ha, 576 h) was 3 (30 à 50). Moreover, the “ACTIVITE DE POST-LEVEE SIN” value in [10] (4000 g/ha, 576 h) is 4 (10 à 30). The “ACTIVITE DE POST-LEVEE LOL” value in [11] (4000 g/ha, 576 h) is 0 (90 à 100). Further, the “ACTIVITE DE POST-LEVEE DIG” value in data set [12] (4000 g/ha, 576 h) is reported as 2 (50 à 70). Moreover, in data set [13], the “ACTIVITE DE POST-LEVEE ECH” value is 2 (50 à 70). Moreover, the “ACTIVITE DE POST-LEVEE SOL” value in data set [14] (4000 g/ha, 576 h) is 3 (30 à 50).

Consider `CCOC(=O)c1cccnc1-c1nc(-c2ccccc2)nn1S(=O)(=O)N(C)C` [compound 19], for which the “ACTIVITE HERBICIDE DE POST LEVEE O R Y” value in data set [1] (dose 4 kg/ha) is 0 (90 à 100). In data set [2] (4000 g/ha, 576 h), the “ACTIVITE HERBICIDE DE POST LEVEE X A N” value is recorded as 2 (50 à 70). Further, in data set [3] (4000 g/ha, 576 h), the “ACTIVITE HERBICIDE DE POST LEVEE S I N” value is 5 (O à 10). In addition, the “ACTIVITE HERBICIDE DE POST LEVEE I P O” value in data set [4] (4000 g/ha, 576 h) was 4 (10 à 30). In [5] (4000 g/ha, 576 h), the “ACTIVITE HERBICIDE DE POST LEVEE S E S” value is on record as 5 (O à 10). Also, the “ACTIVITE HERBICIDE DE POST LEVEE T R Z” value in [6] (dose 4 kg/ha) is 0 (90 à 100). Besides, the “ACTIVITE HERBICIDE DE POST LEVEE Z E A” value in data set [7] (dose 4 kg/ha) is 0 (90 à 100). Moreover, in data set [8] (4000 g/ha, 576 h), the “ACTIVITE HERBICIDE DE POST LEVEE S O L” value was 5 (O à 10).
